Results published in paper PMC3731216, “Origin and Functional Diversification of an Amphibian Defense Peptide Arsenal” (PLoS Genetics, 2013).
≈ marks a conversion by molar mass, not a printed value. Where a SMILES comes first, the peptide text is derived from it.

Tests used:
[1] = system: T-lymphocytes (naive C57Black/6 splenocytes); test: Inhibition of Concanavalin A-induced T-cell proliferation in spleen cell cultures; format: cell-based, Mus musculus; details: lowest concentration causing at least 50% inhibition of Concanavalin A-induced T-cell proliferation; 2×10^5 splenocytes, 24 h + 18 h [3H]thymidine, 37°C; min–max if variable
Method: (§1) Seventeen predicted and recovered peptides were de novo synthesized using solid-phase technology by CASLO Laboratory ApS (Lyngby, Denmark) and delivered as HPLC-purified (>95%) trifluoracetate (TFA) salts. The peptide salts were stored as 5.12 mM stock solutions in 0.01% (V/V) acetic acid/0.2% (m/V) BSA. Peptides were tested against Escherichia coli (ATCC 25922) and Pseudomonas aeruginosa (ATCC 15692), Staphylococcus aureus (ATCC 25923), Micrococcus luteus, Saccharomyces cerevisiae, a protozoan parasite (Trypanosoma brucei brucei), mouse (Mus musculus) red blood cells and mouse spleen tissue cultures (containing 50–60% B-cells, ∼25–30% T-cells, and 5% myeloid cells). All assays were performed in duplicate or triplicate.
Activity against T-lymphocytes was assessed as the lowest peptide concentration in a series of twofold dilutions causing at least 50% inhibition of Concanavalin A-induced T-cell proliferation (IC50). Solutions containin 2×10^5 naive C57Black/6 splenocytes in the presence of 2.5 µg Concanavalin A were added to polypropylene 96-well plates containing the serial peptide dilutions to obtain total volumes of 100 µl. After incubation for 24 hours at 37°C in a humidified atmosphere, the cells were pulsed with [^3H]thymidine and incubated for an additional 18 hours. The amount of [^3H]thymidine incorporation was assessed by a β-counter as a measure of cell proliferation and the percentage of proliferation inhibition for each peptide concentration was calculated as 100×(1−(Tobs/T100%)), where Tobs is the [^3H]thymidine level measured for the peptide concentration, and T100% is the [^3H]thymidine level measured for Concanavalin-A-induced cell proliferation in the absence of peptide (representing 100% proliferation).

[2] = system: Staphylococcus aureus (ATCC 25923); test: MIC assay in liquid medium (twofold dilutions) against S. aureus; format: cell-based; details: lowest concentration in twofold dilutions with no growth; 5×10^5 CFU/ml, Müller-Hinton broth, 37°C, 18 hours, read by eye; duplicate or triplicate, min–max if variable
Method: as §1
(§2) Activity against the bacteria and fungus was measured by assessing the lowest peptide concentration in a series of twofold dilutions at which no growth was detected (known as the minimum inhibitory concentration, MIC). Bacterial and yeast cultures (5×10^5 colony forming units/ml) were prepared in Müller-Hinton (MH) broth and Luria-Bertani (LB) broth respectively and transferred to serial dilutions of peptides ranging from 512 or 256 µM down to 1 or 0.5 µM in 96-well polypropylene plates. After incubation at 37°C (bacteria) or 30°C (S. cerevisiae) for 18 hours, growth of the cultures was checked by eye. In addition to MIC, we determined minimum microbicidal concentrations (MMC) by inoculating samples of the MIC assays on agar plates lacking peptides and checking for overnight growth. In all cases, MIC and MMC were identical.

[3] = system: Trypanosoma brucei brucei AnTat1.1 bloodstream parasites; test: Trypanolytic activity (LC95, 30 minutes); format: cell-based; details: lowest concentration killing at least 95% of parasites after 30 minutes; PSG buffer with 5% FCS, light microscope count; min–max of repeated tests
Method: as §1
Activity against T. brucei parasites was assessed as the minimum concentration in a series of twofold dilutions required to kill 95% of parasites in 30 minutes (LC95). Frozen stabilates of Trypanosoma brucei brucei AnTat1.1 bloodstream parasites were expanded by infection of C57Black/6 mice (Janvier). Mice with systemic parasitaemia (typically 4–5 days post infection) were exsanguinated and parasites were purified from heparinized blood by DEAE-cellulose (DE52, Whatman) chromatography. Collected parasites were washed twice with Phosphate-Saline-Glucose buffer (PSG-buffer) and enumerated microscopically using a Bürker hematocytometer. The DEAE52-purified parasites (stock: 10^6 parasites/ml PSG buffer containing 5% FCS) were added to polypropylene 96-well plates containing the serial peptide dilutions to obtain total volumes of 200 µl. After incubation for 30 minutes, trypanolytic activity was assessed using a light microscope by calculating the percentage of dead parasites in a minimum of 200 counted cells.

Saccharomyces cerevisiae = test: MIC assay in liquid medium (twofold dilutions) against S. cerevisiae; format: cell-based; details: lowest concentration in twofold dilutions with no growth; 5×10^5 CFU/ml, Luria-Bertani broth, 30°C, 18 hours, read by eye; duplicate or triplicate, min–max if variable
Method: as §1, §2

[4] = Hydrophobicity as % TFA/AcN solvent at HPLC elution time; format: physicochemical; details: chromatographic; expressed as % TFA/AcN solvent at HPLC elution time
[5] = system: Pseudomonas aeruginosa (ATCC 15692); test: MIC assay in liquid medium (twofold dilutions) against P. aeruginosa; format: cell-based; details: lowest concentration in twofold dilutions with no growth; 5×10^5 CFU/ml, Müller-Hinton broth, 37°C, 18 hours, read by eye; duplicate or triplicate, min–max if variable
Method: as §1, §2

[6] = system: Escherichia coli (ATCC 25922); test: MIC assay in liquid medium (twofold dilutions) against E. coli; format: cell-based; details: lowest concentration in twofold dilutions with no growth; 5×10^5 CFU/ml, Müller-Hinton broth, 37°C, 18 hours, read by eye; duplicate or triplicate, min–max if variable
Method: as §1, §2

mouse red blood cells = test: Hemolysis of mouse red blood cells (HC50); format: cell-based; details: lowest concentration causing at least 50% hemolysis; mouse blood diluted 1/100 in RPMI, 37°C, 30 minutes, OD 550 nm; 100% = 1% Tween-20
Method: as §1
Activity against mouse red blood cells was examined by assessing the lowest peptide concentration in a series of twofold dilutions causing at least 50% hemolysis (HC50). Briefly, heparinized blood was obtained by cardiac puncture of mice euthanized via CO2. The blood was diluted 1/100 in RPMI and added to polypropylene 96-well plates containing the serial peptide dilutions to obtain total volumes of 100 µl. The plates were incubated at 37°C in a humidified atmosphere for 30 minutes and centrifuged at 1400 rpm for 2 minutes to pellet intact red blood cells allowing visual observation of hemolysis. Supernatants were subsequently transferred to 96-well flat-bottom plates to allow spectrophotometry using an ELISA reader (OD measured at 550 nm). The percentage of hemolyis for each peptide concentration was calculated as 100×(ODobs−OD0%)/(OD100%−OD0%), where ODobs is the OD measured for the peptide concentration, OD0% is the average OD in the absence of peptides (0% hemolysis), and OD100% is the average OD in the presence of 1% Tween-20 (100% hemolysis).

Micrococcus luteus = test: MIC assay in liquid medium (twofold dilutions) against M. luteus; format: cell-based; details: lowest concentration in twofold dilutions with no growth; 5×10^5 CFU/ml, Müller-Hinton broth, 37°C, 18 hours, read by eye; duplicate or triplicate, min–max if variable
Method: as §1, §2

| Molecule | IC50 [1] [µM] | MIC S. aureus [2] [µM] | LC95 T. brucei [3] [µM] | MIC S. cerevisiae (Saccharomyces cerevisiae) [µM] | Hydrophobicity [4] | MIC P. aeruginosa [5] [µM] | MIC E. coli [6] [µM] | HC50 Erythrocytes (mouse red blood cells) [µM] | MIC M. luteus (Micrococcus luteus) |
| --- | --- | --- | --- | --- | --- | --- | --- | --- | --- |
| CC(C)C[C@H](NC(=O)[C@H](CC(C)C)NC(=O)[C@H](CC(N)=O)NC(=O)[C@H](CO)NC(=O)CNC(=O)[C@@H](NC(=O)[C@H](CCCCN)NC(=O)[C@H](CC(C)C)NC(=O)CNC(=O)[C@@H](NC(=O)[C@H](CCCCN)NC(=O)[C@H](CC(C)C)NC(=O)[C@H](CC(C)C)NC(=O)[C@H](CO)NC(=O)CNC(=O)[C@H](CC(C)C)NC(=O)[C@H](CC(C)C)NC(=O)[C@@H](N)CC(N)=O)[C@@H](C)O)C(C)C)C(N)=O [CPF-St7] (H-NLLGSLLKTGLKVGSNLL-NH2; N-terminus assumed) | 128 | 32 (≈ 58.9 µg/mL) | 2 to 64 | 64 (≈ 118 µg/mL) | 45,2 % TFA/AcN solvent | >256 | 128 (≈ 235 µg/mL) | 256 | 2 µM (≈ 3.68 µg/mL) |
| CC[C@H](C)[C@H](NC(=O)[C@H](C)NC(=O)[C@H](CC(=O)O)NC(=O)[C@H](CC(C)C)NC(=O)CNC(=O)CNC(=O)[C@H](CCCCN)NC(=O)[C@H](C)NC(=O)[C@H](Cc1ccccc1)NC(=O)[C@H](CCCCN)NC(=O)[C@H](CCCCN)NC(=O)[C@H](CC(C)C)NC(=O)CNC(=O)CNC(=O)[C@H](CC(C)C)NC(=O)[C@@H](NC(=O)[C@@H](NC(=O)[C@H](CO)NC(=O)[C@H](Cc1c[nH]c2ccccc12)NC(=O)[C@@H](NC(=O)CN)C(C)C)[C@@H](C)O)[C@@H](C)CC)C(=O)N[C@H](C(=O)N[C@@H](CC(N)=O)C(=O)N1CCC[C@H]1C(=O)N[C@@H](CCCCN)C(=O)O)C(C)C [XPF-St6] (H-GVWSTILGGLKKFAKGGLDAIVNPK-OH) | 8 | 8 to 16 | – | 8 (≈ 20.6 µg/mL) | – | 16 (≈ 41.1 µg/mL) | 2 to 4 | 64 | 0,5 µM |
| CC(C)C[C@H](NC(=O)CNC(=O)[C@H](C)NC(=O)[C@@H](NC(=O)[C@H](CC(N)=O)NC(=O)[C@H](CO)NC(=O)[C@H](CC(C)C)NC(=O)[C@H](CC(C)C)NC(=O)CN)C(C)C)C(=O)N[C@@H](CC(C)C)C(=O)N[C@@H](CCCCN)C(=O)N[C@@H](CCC(N)=O)C(=O)N[C@@H](Cc1ccccc1)C(=O)N[C@@H](C)C(=O)N[C@@H](CCCCN)C(=O)NCC(=O)NCC(=O)N[C@H](C(=O)N[C@@H](CC(N)=O)C(=O)N[C@@H](C)C(=O)N[C@H](C(=O)N[C@@H](CC(C)C)C(=O)N[C@@H](CC(N)=O)C(=O)N1CCC[C@H]1C(=O)N[C@@H](CCCCN)C(=O)O)C(C)C)C(C)C [XPF-St7] (H-GLLSNVAGLLKQFAKGGVNAVLNPK-OH) | 16 | 128 (≈ 321 µg/mL) | – | 32 (≈ 80.3 µg/mL) | – | 32 (≈ 80.3 µg/mL) | 8 (≈ 20.1 µg/mL) | >256 | 1 µM (≈ 2.51 µg/mL) |
| CC[C@H](C)[C@H](NC(=O)[C@H](C)NC(=O)[C@H](CC(N)=O)NC(=O)[C@@H](NC(=O)CNC(=O)CNC(=O)[C@H](CCCCN)NC(=O)[C@H](C)NC(=O)[C@H](Cc1ccccc1)NC(=O)[C@H](CCCCN)NC(=O)[C@H](CCCCN)NC(=O)[C@H](C)NC(=O)[C@H](Cc1ccccc1)NC(=O)[C@H](CC(N)=O)NC(=O)[C@H](C)NC(=O)[C@@H](NC(=O)[C@H](CCCCN)NC(=O)[C@H](CO)NC(=O)[C@H](CCSC)NC(=O)[C@H](Cc1ccccc1)NC(=O)CN)C(C)C)C(C)C)C(=O)N[C@@H](CCSC)C(=O)N[C@@H](CC(N)=O)C(=O)N[C@@H](CCC(N)=O)C(=O)N[C@@H](CCCCN)C(=O)O [XPF-St8] (H-GFMSKVANFAKKFAKGGVNAIMNQK-OH) | 16 | 128 (≈ 344 µg/mL) | – | 8 (≈ 21.5 µg/mL) | – | 4 (≈ 10.7 µg/mL) | 1 (≈ 2.69 µg/mL) | 64 | 0,5 µM |
| CC[C@H](C)[C@H](NC(=O)[C@H](Cc1ccccc1)NC(=O)CNC(=O)[C@H](CCCCN)NC(=O)[C@H](C)NC(=O)[C@H](Cc1ccccc1)NC(=O)[C@H](CCCCN)NC(=O)[C@H](CCCCN)NC(=O)[C@H](C)NC(=O)[C@H](CO)NC(=O)[C@H](Cc1c[nH]cn1)NC(=O)[C@H](C)NC(=O)[C@@H](NC(=O)[C@H](CCC(=O)O)NC(=O)[C@H](CCCCN)NC(=O)[C@H](CC(C)C)NC(=O)CN)C(C)C)C(=O)N[C@@H](CO)C(=O)NCC(=O)N[C@@H](CC(C)C)C(=O)N[C@H](C(=O)NCC(=O)N[C@@H](CO)C(=O)O)[C@@H](C)O [magainin-St1] (H-GLKEVAHSAKKFAKGFISGLTGS-OH) | > 256 | >256 | – | 128 (≈ 299 µg/mL) | – | >256 | 64 (≈ 149 µg/mL) | >256 | 32 µM (≈ 74.7 µg/mL) |
| FIGALLGPLLNLLKa [PFQa-St1, homologue of pFQa encoded by xpf-St7] | – | – | – | – | 55,4 % TFA/AcN solvent | – | – | – | – |
| GMATKAGTVLGKVTKAIIGAALa [PGLa-St3, predicted S. tropicalis skin peptide encoded by pgla-St3] | – | – | – | – | 39,2 % TFA/AcN solvent | – | – | – | – |
| pQGLIGTLTAKQIKKa [levitide-St2, levitide-related peptide encoded by xpf-St5] | – | – | – | – | 35,0 % TFA/AcN solvent | – | – | – | – |
| pQGLMGTLISKQMKKa [levitide-St1, levitide-related peptide encoded by xpf-St4] | – | – | – | – | 31,6 % TFA/AcN solvent | – | – | – | – |
